Read-outs that look alike come from different tables or passages of the source.
Tests used:
[1] = target: T1, human Cot catalytic domain (30-397 amino acids) (Homo sapiens, UniProt P41279); assay: High Throughput Cot Biochemical Assay (KinEASE TR-FRET); settings: read-out: IC50 HTRF
T1 construct: Purified recombinant human Cot catalytic domain (30-397 amino acids) was purchased from Cama Biosciences; purchased Cama Biosciences (so in the source)
Procedure, shortened: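 TR-FRET readout: Eu-labeled phospho-specific antibody binds XL665-tagged STK3 peptide after phosphorylation by Cot (aa 30-397, 5 nM). Conditions: 400 μM ATP, 1 μM peptide, MOPS pH 7.0 buffer with MgOAc, DTT, BSA, NP-40, glycerol; 0.1% DMSO.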

[2] = tested on: TNFα production in LPS-stimulated human monocytes; assay: Cot Monocyte TNFα Cell Based Assay; settings: Homo sapiens, Monocyte, read-out: EC50 TNF
Procedure, shortened: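 TR-FRET read-out of total secreted TNFα, normalized as % control (unstimulated = 0%, LPS-stimulated = 100%). Cells (5,000/well) were exposed to compound 1 h at 37 °C, then to 50 pg/ml LPS for a further 4 h.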

[3] = Cot KinEASE TR-FRET, 400 μM ATP
[4] = LPS-stimulated human monocytes, TNFα TR-FRET
[5] = Cot biochemical HTRF (KinEASE TR-FRET) assay
[6] = TNFα in LPS-stimulated human monocytes
[7] = Cot KinEASE TR-FRET (HTRF) biochemical assay, 400 μM ATP

T1 sequence (P41279 30-397): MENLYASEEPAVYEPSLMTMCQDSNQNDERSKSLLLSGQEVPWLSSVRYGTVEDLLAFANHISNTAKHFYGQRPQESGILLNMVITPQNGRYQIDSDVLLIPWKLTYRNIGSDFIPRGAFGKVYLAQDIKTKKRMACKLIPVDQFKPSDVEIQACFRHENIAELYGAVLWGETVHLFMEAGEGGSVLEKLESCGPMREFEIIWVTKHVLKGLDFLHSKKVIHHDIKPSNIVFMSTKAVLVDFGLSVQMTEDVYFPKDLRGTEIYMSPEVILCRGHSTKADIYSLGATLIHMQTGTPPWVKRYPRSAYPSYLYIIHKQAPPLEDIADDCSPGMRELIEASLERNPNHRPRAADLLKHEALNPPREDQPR

Compound | IC50 [1, 3] | EC50 [2, 4] | IC50 [1, 5] | EC50 [2, 6] | IC50 [1, 7]
CC(C)(C)CNc1c(C#N)cnc2c(Cl)cc(N[C@@H](c3ccc(F)cc3)c3cn(C45CC(C4)C5)nn3)cc12 [Example 1092, (S)-6-(((1-(bicyclo[1.1.1]pentan-1-yl)-1H-1,2,3-triazol-4-yl)(4-fluorophenyl)methyl)amino)-8-chloro-4-(neopentylamino)quinoline-3-carbonitrile] | 20 nM | 395 nM | – | – | –
CCOc1ccc(Nc2c(C#N)cnc3c(Cl)cc(N[C@@H](c4ccc(Cl)cc4)c4cn(C5CCN(C(C)(C)C)CC5)nn4)cc23)cc1Cl [Example 655, (S)-6-(((1-(1-(tert-butyl)piperidin-4-yl)-1H-1,2,3-triazol-4-yl)(4-chlorophenyl)methyl)amino)-8-chloro-4-((3-chloro-4-ethoxyphenyl)amino)quinoline-3-carbonitrile] | – | – | 324 nM | 10500 nM | –
CC(C)(C)CNc1c(C#N)cnc2c(Cl)cc(N[C@H](c3cn(C4CC4)nn3)c3ccccc3-c3ccccc3)cc12 [Example 97, (S)-6-(([1,1'-biphenyl]-2-yl(1-cyclopropyl-1H-1,2,3-triazol-4-yl)methyl)amino)-8-chloro-4-(neopentylamino) quinoline-3-carbonitrile] | – | – | – | > 1000 nM | 985 nM
Cc1nnc(C(Nc2cc(Cl)c3ncc(C#N)c(Nc4ccc(F)c(Cl)c4)c3c2)c2ccc(F)cc2)o1 (stereo not shown) [Example 734, 8-chloro-4-((3-chloro-4-fluorophenyl)amino)-6-(((4-fluorophenyl)(5-methyl-1,3,4-oxadiazol-2-yl)methyl)amino)quinoline-3-carbonitrile] | – | – | 151 nM | 3900 nM | –
[2H][C@](Nc1cc(Cl)c2ncc(C#N)c(NC3(C)CCC3)c2c1)(c1ccc(F)cc1)c1cn(C2CC2)nn1 [Example 219, (S)-8-chloro-6-(((1-cyclopropyl-1H-1,2,3-triazol-4-yl)(4-fluorophenyl)methyl-d)amino)-4-((1-methylcyclobutyl)amino)quinoline-3-carbonitrile] | – | – | – | 4930 nM | 534 nM
[2H][C@](Nc1cc(Cl)c2ncc(C#N)c(Nc3cccc(Cl)c3C#N)c2c1)(c1ccc(F)cc1)c1cn(C2CC2)nn1 [Example 934, (S)-8-chloro-4-((3-chloro-2-cyanophenyl)amino)-6-(((1-cyclopropyl-1H-1,2,3-triazol-4-yl)(4-fluorophenyl)methyl-d)amino)quinoline-3-carbonitrile] | 371 nM | ≥ 1000 nM | – | – | –
[2H][C@@](Nc1cc(I)c2ncc(C#N)c(NCC(C)(C)C)c2c1)(c1cn(C2CC2)nn1)c1ccccc1Cl [Example 953, (S)-6-(((2-chlorophenyl)(1-cyclopropyl-1H-1,2,3-triazol-4-yl)methyl-d)amino)-8-iodo-4-(neopentylamino)quinoline-3-carbonitrile] | 111 nM | ≥ 1000 nM | – | – | –
CC1(C)CC(n2cc([C@@H](Nc3cc(F)c4ncc(C#N)c(Nc5ccc(F)c(Cl)c5)c4c3)c3ccc(Cl)cc3)nn2)CC(C)(C)N1 [Example 707, (S)-4-((3-chloro-4-fluorophenyl)amino)-6-(((4-chlorophenyl)(1-(2,2,6,6-tetramethylpiperidin-4-yl)-1H-1,2,3-triazol-4-yl)methyl)amino)-8-fluoroquinoline-3-carbonitrile] | – | – | 134 nM | 3010 nM | –
[2H][C@](Nc1cc(-c2cnn(C)c2)c2ncc(C#N)c(NCC(C)(C)C)c2c1)(c1ccc(F)cc1)c1cn(C2CC2)nn1 [Example 137, (S)-6-(((1-cyclopropyl-1H-1,2,3-triazol-4-yl)(4-fluorophenyl)methyl-d)amino)-8-(1-methyl-1H-pyrazol-4-yl)-4-(neopentylamino) quinoline-3-carbonitrile] | – | – | – | 4370 nM | 606 nM
[2H][C@](Nc1cc(Cl)c2ncc(C#N)c(NC(CC)c3cnc(F)c(F)c3)c2c1)(c1ccc(F)cc1)c1cn(C2CC2)nn1 (stereo partly drawn) [Example 180, 8-chloro-6-(((S)-(1-cyclopropyl-1H-1,2,3-triazol-4-yl)(4-fluorophenyl)methyl-d)amino)-4-((1-(5,6-difluoropyridin-3-yl)propyl)amino) quinoline-3-carbonitrile] | – | – | – | 3590 nM | 194 nM
[2H][C@](Nc1cc(Cl)c2ncc(C#N)c(N[C@@H](C)C(C)(C)C)c2c1)(c1ccc(F)cc1)c1cn(C2CC2)nn1 [Example 244, 8-chloro-6-(((S)-(1-cyclopropyl-1H-1,2,3-triazol-4-yl)(4-fluorophenyl)methyl-d)amino)-4-(((S)-3,3-dimethylbutan-2-yl)amino)quinoline-3-carbonitrile] | – | – | – | 5690 nM | 576 nM
CC(C)(C)CNc1c(C#N)cnc2c(C#N)cc(N[C@@H](c3ccc(F)cc3)c3cn(C4(c5cnccn5)CC4)nn3)cc12 [Example 984, (S)-6-(((4-fluorophenyl)(1-(1-(pyrazin-2-yl)cyclopropyl)-1H-1,2,3-triazol-4-yl)methyl)amino)-4-(neopentylamino)quinoline-3,8-dicarbonitrile] | 125 nM | 93 nM | – | – | –

Other lines, results leading:

IC50 [1, 3] | EC50 [2, 4] | IC50 [1, 5] | EC50 [2, 6] | IC50 [1, 7] | Compound
– | – | – | 214 nM | 17 nM | CC[C@@H](Nc1c(C#N)cnc2c(Cl)cc(N[C@@H](c3ccc(F)cc3)c3cn(-c4cccnc4)nn3)cc12)c1ccccc1 [Example 391, 8-chloro-6-(((S)-(4-fluorophenyl)(1-(pyridin-3-yl)-1H-1,2,3-triazol-4-yl)methyl)amino)-4-(((R)-1-phenylpropyl)amino)quinoline-3-carbonitrile]
– | – | 50 nM | 2220 nM | – | CC1(Cn2cc([C@@H](Nc3cc(Cl)c4ncc(C#N)c(Nc5cnc(F)c(F)c5)c4c3)c3ccc(F)cc3)nn2)CC1 [Example 412, (S)-8-chloro-4-((5,6-difluoropyridin-3-yl)amino)-6-(((4-fluorophenyl)(1-((1-methylcyclopropyl)methyl)-1H-1,2,3-triazol-4-yl)methyl)amino)quinoline-3-carbonitrile]
– | – | – | 877 nM | 10 nM | Cn1cc([C@@H](Nc2cc(Cl)c3ncc(C#N)c(Nc4cnc(F)c(F)c4)c3c2)c2ccccc2F)nn1 [Compound 45]
– | – | 26 nM | 434 nM | – | CC1(Cn2cc([C@@H](Nc3cc(Cl)c4ncc(C#N)c(Nc5ccc(F)c(Cl)c5)c4c3)c3ccc(F)cc3)nn2)COC1 [Example 808, (S)-8-chloro-4-((3-chloro-4-fluorophenyl)amino)-6-(((4-fluorophenyl)(1-((3-methyloxetan-3-yl)methyl)-1H-1,2,3-triazol-4-yl)methyl)amino)quinoline-3-carbonitrile]
– | – | – | 259 nM | 5 nM | [2H][C@](Nc1cc(Cl)c2ncc(C#N)c(NCC(C)(C)C)c2c1)(c1cccc(C#N)c1)c1cn(C(C)(C)C)nn1 [Example 233, (S)-6-(((1-(tert-butyl)-1H-1,2,3-triazol-4-yl)(3-cyanophenyl)methyl-d)amino)-8-chloro-4-(neopentylamino)quinoline-3-carbonitrile]
– | – | 26 nM | 1860 nM | – | N#Cc1cnc2c(Cl)cc(N[C@H](c3c[nH]nn3)c3cccc(F)c3F)cc2c1Nc1cnc(F)c(F)c1 [Example 448, (S)-8-chloro-6-(((2,3-difluorophenyl)(1H-1,2,3-triazol-4-yl)methyl)amino)-4-((5,6-difluoropyridin-3-yl)amino)quinoline-3-carbonitrile]
– | – | – | 462 nM | 2 nM | CC(=O)Nc1cccc([C@H](Nc2cc(C#N)c3ncc(C#N)c(NCC(C)(C)C)c3c2)c2cn(C3CC3)nn2)c1 [Example 76, (S)-N-(3-((1-cyclopropyl-1H-1,2,3-triazol-4-yl)((3,8-dicyano-4-(neopentylamino)quinolin-6-yl)amino)methyl)phenyl)acetamide]
– | – | 132 nM | 1100 nM | – | N#Cc1cnc2c(Cl)cc(N[C@@H](c3ccccc3)c3c[nH]nn3)cc2c1Nc1ccc(Cl)c(Cl)c1F [Example 644, (S)-8-chloro-4-((3,4-dichloro-2-fluorophenyl)amino)-6-((phenyl(1H-1,2,3-triazol-4-yl)methyl)amino)quinoline-3-carbonitrile]
– | – | 11 nM | 199 nM | – | CCC[C@@H](Nc1c(C#N)cnc2c(Cl)cc(N[C@@H](c3ccccc3)c3cn(C4CCN(C(C)(C)C)CC4)nn3)cc12)c1ccccc1 [Example 558, 6-(((S)-(1-(1-(tert-butyl)piperidin-4-yl)-1H-1,2,3-triazol-4-yl)(phenyl)methyl)amino)-8-chloro-4-(((R)-1-phenylbutyl)amino)quinoline-3-carbonitrile]
– | – | – | 195 nM | 23 nM | [2H][C@](Nc1cc(C#N)c2ncc(C#N)c(NCC(C)(C)C)c2c1)(c1ccc(F)cc1)c1cn(C2(C(F)(F)F)CC2)nn1 [Example 130, (S)-6-(((4-fluorophenyl) (1-(1-(trifluoromethyl)cyclopropyl)-1H-1,2,3-triazol-4-yl)methyl-d)amino)-4-(neopentylamino) quinoline-3,8-dicarbonitrile]
– | – | 2340 nM | 2840 nM | – | N#Cc1cnc2c(Cl)cc(N[C@@H](c3ccc(Cl)cc3)c3c[nH]nn3)cc2c1Nc1c(F)cccc1F [Example 640, (S)-8-chloro-6-(((4-chlorophenyl)(1H-1,2,3-triazol-4-yl)methyl)amino)-4-((2,6-difluorophenyl)amino)quinoline-3-carbonitrile]

Source: patent US10316017B2, “COT modulators and methods of use thereof” (Gilead Sciences, Inc., priority 2015, dated 2019)
